In one test the test system is ciliated cell. Kind of test: Rotating ciliated explant (Example 9, Table 7). Conditions: for activation at 10 µg/mL: 10^-2 mg/ml (terbutaline 1-^-2 [sic]); for activation at 10 µg/mL / activation at 1 µg/mL / activation at 0.1 µg/mL: mean ± SD, > 20.0 significant, read-out: Acceleration (rotating ciliated explant); for activation at 1 µg/mL: 10^-3 mg/ml; for activation at 0.1 µg/mL: 10^-4 mg/ml. It is filed as cell-based. As to the method:
(§1) Human ciliated cells were collected from a normal trachea by means of a branchoscope, the ciliated cells being separated by rubbing the bronchus while observing through the branchoscope, while the collection of frog cilitated cells was conducted by rubbing the palatine mucosta, without being specially careful. […] The groups of cells were transferred to a cover slip and one drop of chicken plasma (prepared by Difco Company) and one drop of 50% chicken embryo extract were added to the cells, thus forming clots. The rotary motion in the clots was recorded by means of a video recorder and the number of rotations per minute was measured. The agents were dissolved in the Medium 199 and were injected through a tube attached to a rose chamber. The state of rotary motion 5 minutes, 10 minutes and 15 minutes after the injection were recorded by means of a video recorder, and the number of revolutions was measured.
A test was conducted to examine the above-mentioned effect by using sodium salt of N-Acetylneuraminic Acid, in accordance with the same testing method as that of Example 2.

The test system of test [1] is palatine mucosa of frog. Kind of test: Ciliary movement of frog palatine mucosa, particle transport method (Example 3, Tables 1-3). It is filed as cell-based, bull frog. Conditions: for activation at 100 µg/mL / activation at 10 µg/mL: control = 0. As to the method: Bull frogs (furnished by Saitama Test Animal) weighing 300 to 450 g were used regardless of sex.
N-acetylneuraminic acid and calcium salt of N-acetylneuraminic acid (provided by Kanto Ishiseiyaku Kabushiki Kaisha), as well as acetylcholine chloride (furnished by Sigma Kabushiki Kaisha) were used as the test substances.
(§2) Mucociliary transport was measured by the particle transport method. After decapitation of a frog, the surface of the palatine mucosa was separated with minimized damage and of fixed to a cork plate in a Petri dish which was then filled with 20 ml of Ringer's solution (trishydrochloric acid). The palatine mucosa was left in this state for 30 minutes before the commencement of measurement. For measurement, the Ringer's solution was removed and fine pieces of cork (capable of passing pharmaceutical sieve No. 5 but not capable of passing No. 6) were placed on the surface of the palatine mucosa, and the time (in seconds) required for the cork piece to move 1 cm was measured. The duration of movement, i.e., moving speed, was measured also in the state immediately after the removal of the Ringer's solution or pharmaceutical solution.

In test [2] the test system is ciliated cells from human airway and frog palate. Kind of test: Rotation of ciliated cell groups (Example 4). It is filed as cell-based.
From the text: Using ciliated cells from human airway and frog palate, rotation of cell groups due to ciliary beat was observed before and after application of N-acetylneuraminic acid and calcium salt of N-acetylneuraminic acid, in order to confirm the effect of these agents on the cilitated cells.
as §1, with “measured.” for “measured. The agents were dissolved in the Medium 199 and were injected through a tube attached to a rose chamber. The state of rotary motion 5 minutes, 10 minutes and 15 minutes after the injection were recorded by means of a video recorder, and the number of revolutions was measured.”

Test [3] relates to palatine mucosa of frog. Kind of test: Mucociliary transport of frog palatine mucosa (Example 8, Table 6). It is filed as cell-based. Conditions: mean ± SD, over 20.0% significant, read-out: Acceleration (mucociliary transport); for activation at 100 µg/mL: 10^-1 mg/ml; for activation at 10 µg/mL: 10^-2 mg/ml; for activation at 1 µg/mL: 10^-3 mg/ml; for activation at 0.1 µg/mL: 10^-4 mg/ml. As to the method:
as §2

The structures appear in SMILES notation. Counter-ions that a name gives are not always drawn. Like-named read-outs stand apart in the source and are kept apart here.

On to `CC(=O)OCC[N+](C)(C)C.[Cl-]` [acetylcholine, acetylcholine chloride, reference compound], for which the activation at 10 µg/mL came out at 58.1 ± 38.1% with ciliated cell (5 min, 5 min after perfusion); 52 ± 32.6% with ciliated cell (10 min, 10 min after perfusion); 44.5 ± 22% in the test on ciliated cell (0.25 h, 15 min after perfusion); 40% with palatine mucosa of frog [1] (read-out: Acceleration, 10^-5 g/ml, frog number 1); 19.7% with palatine mucosa of frog [1] (read-out: Acceleration, 10^-5 g/ml, frog number 2); 33.1% in the test with palatine mucosa of frog [1] (read-out: Acceleration, 10^-5 g/ml, frog number 3). Also, the activation at 10 µg/mL with palatine mucosa of frog [3] (5 min, 5 min after applied) came to 17.5 ± 14.3%; in the test on palatine mucosa of frog [3] (10 min, 10 min after applied), 18.8 ± 21.1%; in the test on palatine mucosa of frog [3] (0.25 h, 15 min after applied) it was 24.9 ± 25.6%. Moreover, the activation at 1 µg/mL with ciliated cell (5 min, 5 min after perfusion) was determined as 27.8 ± 12.2%; with ciliated cell (10 min, 10 min after perfusion) it was 10.6 ± 15%; in the test with ciliated cell (0.25 h, 15 min after perfusion), 20.8 ± 26.4%; in the test with palatine mucosa of frog [3] (5 min, 5 min after applied), 12.3 ± 8.5%; with palatine mucosa of frog [3] (10 min, 10 min after applied) it was 19.9 ± 16.8%; with palatine mucosa of frog [3] (0.25 h, 15 min after applied), 13.9 ± 20.5%. Besides, the activation at 0.1 µg/mL is -1.7% in the test on ciliated cell (5 min, 5 min after perfusion); 0.8% in the test with ciliated cell (10 min, 10 min after perfusion); 14.6% in the test with ciliated cell (0.25 h, 15 min after perfusion); 3 ± 7.6% in the test on palatine mucosa of frog [3] (5 min, 5 min after applied); 3.8 ± 15.5% in the test with palatine mucosa of frog [3] (10 min, 10 min after applied); -5.5 ± 10% with palatine mucosa of frog [3] (0.25 h, 15 min after applied). Besides, the Effect on rotation result with ciliated cell (between 10^-3 and 10^-2 mg/ml) is listed as “increase in the rotation in a certan dependency on the dose”. For the same compound, the Movement in the test on palatine mucosa of frog [1] (10^-4 g/ml, frog number 1) stood at 21.0 s/cm; in the test with palatine mucosa of frog [1] (10^-4 g/ml, frog number 2), 21.7 s/cm; in the test with palatine mucosa of frog [1] (10^-4 g/ml, frog number 3), 20.7 s/cm; in the test on palatine mucosa of frog [1] (10^-5 g/ml, frog number 1), 27.0 s/cm; with palatine mucosa of frog [1] (10^-5 g/ml, frog number 2), 29.7 s/cm; in the test on palatine mucosa of frog [1] (10^-5 g/ml, frog number 3), 26.3 s/cm. Further, the activation at 100 µg/mL in the test with palatine mucosa of frog [1] (read-out: Acceleration, 10^-4 g/ml, frog number 1) turned out to be 53.3%; with palatine mucosa of frog [1] (read-out: Acceleration, 10^-4 g/ml, frog number 2), 41.4%; in the test with palatine mucosa of frog [1] (read-out: Acceleration, 10^-4 g/ml, frog number 3), 47.3%; with palatine mucosa of frog [3] (5 min, 5 min after applied), 22.8 ± 26.1%; in the test with palatine mucosa of frog [3] (10 min, 10 min after applied), 31 ± 24.9%; with palatine mucosa of frog [3] (0.25 h, 15 min after applied) it was 30.5 ± 19.5%. For the same compound, the “Time of speed peak of rotary motion after application” value in test [2] (3×10^-3 mg/ml) is ~5 min; in test [2] (10^-3 mg/ml) it was “about 10 minutes”. The “Effect on speed of rotary motion of the cilium cells” value in test [2] (10^-3 mg/ml and 3×10^-3 mg/ml) was “the speed of rotary motion of the cilium cells is increased”. For the same compound, in test [2] (10^-3 and 3×10^-3 mg/ml, both cases), the “Time after application at which rotary motion stopped” value was determined as 13 min.

Consider `CC(=O)N[C@H]1[C@H]([C@H](O)[C@H](O)CO)OC(O)(C(=O)O)C[C@@H]1O` (stereo partly shown) [calcium salt of N-acetylneuraminic acid], for which the Movement in the test with palatine mucosa of frog [1] (10^-4 g/ml, frog number 1) was 23.0 s/cm; in the test with palatine mucosa of frog [1] (10^-4 g/ml, frog number 2), 29.0 s/cm; with palatine mucosa of frog [1] (10^-4 g/ml, frog number 3) it was 19.7 s/cm; with palatine mucosa of frog [1] (10^-5 g/ml, frog number 1), 25.0 s/cm; with palatine mucosa of frog [1] (10^-5 g/ml, frog number 2) it was 29.3 s/cm; with palatine mucosa of frog [1] (10^-5 g/ml, frog number 3) it was 24.3 s/cm. Also, the activation at 100 µg/mL with palatine mucosa of frog [1] (10^-4 g/ml, frog number 1, read-out: Acceleration) was found to be 39%; in the test on palatine mucosa of frog [1] (10^-4 g/ml, frog number 2, read-out: Acceleration), 28.7%; in the test on palatine mucosa of frog [1] (10^-4 g/ml, frog number 3, read-out: Acceleration) it was 46.8%. Further, the activation at 10 µg/mL in the test on palatine mucosa of frog [1] (10^-5 g/ml, frog number 1, read-out: Acceleration) was determined as 33.7%; in the test with palatine mucosa of frog [1] (10^-5 g/ml, frog number 2, read-out: Acceleration), 28%; in the test on palatine mucosa of frog [1] (10^-5 g/ml, frog number 3, read-out: Acceleration), 34.2%. The “Effect on ciliary movement of palatine mucosa” value with palatine mucosa of frog [1] (Tables 1 and 3) was “acceleration of the ciliary movement of palatine mucosa in a certain dose-dependency”. The “Ciliary movement promoting effect compared with acetylcholine” value in the test with palatine mucosa of frog [1] (acetylcholine control at 10^-5 and 10^-4) is on record as “substantially the same ciliary movement promoting effect as the acetylcholine”.

As to `CC(C)(C)NCC(O)c1cc(O)cc(O)c1` (stereo not shown) [terbutaline, 5-[2-[(1.1-dimetylethyl)amino]-1-hydoxyethyl]-1,3-benzenediole], the Effect on rotation result in the test on ciliated cell (10^-4 to 10^- mg/ml (so in the source)) is listed as “general tendency of increase of the rotation”. Also, the activation at 10 µg/mL in the test on ciliated cell (5 min, 5 min after perfusion) came out at 18.6 ± 0.3%; with ciliated cell (10 min, 10 min after perfusion), 24.8 ± 3.5%; with ciliated cell (0.25 h, 15 min after perfusion), 2.7 ± 7.4%. Further, the activation at 1 µg/mL in the test on ciliated cell (5 min, 5 min after perfusion) was 51.2 ± 36%; with ciliated cell (10 min, 10 min after perfusion), 37.2 ± 35.5%; in the test with ciliated cell (0.25 h, 15 min after perfusion), 42.1 ± 32.8%. For the same compound, the activation at 0.1 µg/mL in the test on ciliated cell (5 min, 5 min after perfusion) was -5.2 ± 12.2%; with ciliated cell (10 min, 10 min after perfusion), 1.6 ± 4.6%; with ciliated cell (0.25 h, 15 min after perfusion), 6.7 ± 3%. In addition, the “Effect on rotary motion of the cilium cells” value in test [2] (10^-3 to 3×10^-2 mg/ml) is listed as “the rotary motion of the cilium cells is increased”. The “Effect on rotary motion, time dependence” value in test [2] (5 minutes after application, 10^-3 to 3×10^-2 mg/ml) is recorded as “particularly remarkable 5 minutes after the application”.

The values are drawn from US4698332A, “Expectorant” (Mect Corporation, priority 1984, dated 1987).
